Assay results taken from PubChem BioAssay AID248 (DTP/NCI, 2004).
Several values for one entry are separate records, joined by “and”; a condition that tells them apart may be missing. Equal entries are not always repeated. Toxic doses and inconclusive results are not listed. No stated cut-off is given here; in the data, active means T/C of 150% or more; inactive means T/C below 125%.

Test system: L1210 leukemia ip in BDF1 mice, survival T/C
Experiment: NCI In Vivo Anticancer Drug Screen. Data for tumor model L1210 Leukemia (intraperitoneal) in B6D2F1 (BDF1) mice
Settings: endpoint: mean survival time, higher = longer survival
How it was run: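 Value reflects the ratio of survival in compound-treated mice to survival in vehicle-treated controls, with both groups carrying the same transplanted tumor.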

[1] = dose: 100.0 mg/kg/injection, schedule: Q01DX009 (ip), vehicle: saline
[2] = dose: 100.0 mg/kg/injection, schedule: Q04DX003 (ip), vehicle: saline
[3] = dose: 200.0 mg/kg/injection, schedule: Q01DX009 (ip), vehicle: saline
[4] = dose: 200.0 mg/kg/injection, schedule: Q04DX003 (ip), vehicle: saline
[5] = dose: 400.0 mg/kg/injection, schedule: Q04DX003 (ip), vehicle: saline
[6] = dose: 100.0 mg/kg/injection, schedule: Q04DX003 (ip), vehicle: Klucel (hydroxypropylcellulose) (HPC)
[7] = dose: 200.0 mg/kg/injection, schedule: Q04DX003 (ip), vehicle: Klucel (hydroxypropylcellulose) (HPC)
[8] = dose: 400.0 mg/kg/injection, schedule: Q04DX003 (ip), vehicle: Klucel (hydroxypropylcellulose) (HPC)
[9] = dose: 100.0 mg/kg/injection, schedule: Q01DX009 (ip), vehicle: Klucel (hydroxypropylcellulose) (HPC)
[10] = dose: 200.0 mg/kg/injection, schedule: Q01DX009 (ip), vehicle: Klucel (hydroxypropylcellulose) (HPC)
[11] = dose: 400.0 mg/kg/injection, schedule: Q01DX009 (ip), vehicle: Klucel (hydroxypropylcellulose) (HPC)
[12] = dose: 100.0 mg/kg/injection, schedule: Q04DX002 (ip), vehicle: Klucel (hydroxypropylcellulose) (HPC)
[13] = dose: 100.0 mg/kg/injection, schedule: Q01DX001 (ip), vehicle: saline
[14] = dose: 200.0 mg/kg/injection, schedule: Q01DX001 (ip), vehicle: saline
[15] = dose: 400.0 mg/kg/injection, schedule: Q01DX001 (ip), vehicle: saline
[16] = dose: 100.0 mg/kg/injection, schedule: Q01DX009 (ip), vehicle: saline with Tween-80
[17] = dose: 200.0 mg/kg/injection, schedule: Q01DX009 (ip), vehicle: saline with Tween-80

Measured: T/C

O=C(Oc1ccc([N+](=O)[O-])cc1)c1ccc(CBr)cc1
inactive: dose: 50.0 mg/kg/injection, schedule: Q01DX009 (ip), vehicle: saline 104 % of control | [1] 102 % of control | [2] 94 % of control | [3] 94 % of control | [4] 94 % of control

COc1ccc(C2=CC(=O)C(c3ccc(OC)cc3)=CC2=O)cc1
inactive: dose: 20.0 mg/kg/injection, schedule: Q01DX009 (ip), vehicle: gum acacia 88 % of control | dose: 20.0 mg/kg/injection, schedule: Q04DX003 (ip), vehicle: gum acacia 86 % of control | dose: 40.0 mg/kg/injection, schedule: Q04DX003 (ip), vehicle: gum acacia 92 % of control | dose: 80.0 mg/kg/injection, schedule: Q01DX009 (ip), vehicle: gum acacia 97 % of control | dose: 80.0 mg/kg/injection, schedule: Q04DX003 (ip), vehicle: gum acacia 91 % of control

OCCc1nn[nH]n1
inactive: [2] 104 % of control | [4] 93 % of control | [5] 98 % of control

CCN(CC)c1ccc(/C=N/NC(=S)NC23CC4CC(CC(C4)C2)C3)cc1
inactive: dose: 75.0 mg/kg/injection, schedule: Q01DX001 (ip), vehicle: saline 100 % of control | dose: 150.0 mg/kg/injection, schedule: Q01DX001 (ip), vehicle: saline 101 % of control | dose: 300.0 mg/kg/injection, schedule: Q01DX001 (ip), vehicle: saline 92 % of control

Nc1cccc2c1nc(NCCO)c1ccccc12
inactive: [6] 114 % of control | [7] 103 % of control | [8] 103 % of control

S=P(Nc1ccc(Cl)cc1Cl)(Nc1ccc(Cl)cc1Cl)c1ccccc1
inactive: [9] 102 % of control | [10] 100 % of control | [11] 110 % of control

CCN(C(=S)c1ccc(Cl)cc1)c1cccc(C)c1
inactive: dose: 100.0 mg/kg/injection, schedule: Q01DX001 (ip), vehicle: Klucel (hydroxypropylcellulose) (HPC) 103 % of control | [6] 94 % of control | dose: 200.0 mg/kg/injection, schedule: Q01DX001 (ip), vehicle: Klucel (hydroxypropylcellulose) (HPC) 99 % of control | [7] 103 % of control | dose: 400.0 mg/kg/injection, schedule: Q01DX001 (ip), vehicle: Klucel (hydroxypropylcellulose) (HPC) 94 % of control | [8] 100 % of control

COc1ccc(/C=C\c2nc3ccccc3c(=O)[nH]2)cc1
inactive: dose: 100.0 mg/kg/injection, schedule: Q04DX003 (ip), vehicle: saline with Tween-80 95 % of control | dose: 200.0 mg/kg/injection, schedule: Q04DX003 (ip), vehicle: saline with Tween-80 88 % of control | dose: 400.0 mg/kg/injection, schedule: Q04DX003 (ip), vehicle: saline with Tween-80 95 % of control

COc1ccc(/C=C(C(=O)O)/C(=C/c2ccc(OC)c(OC)c2)C(=O)O)cc1OC
inactive: [9] 96 % of control | [6] 95 % of control | [10] 105 % of control | [7] 96 % of control | [11] 91 % of control | [8] 98 % of control

O=[N+]([O-])c1ccc(N/N=C2\CCC3CC23)c([N+](=O)[O-])c1 (centres undefined)
inactive: dose: 25.0 mg/kg/injection, schedule: Q04DX002 (ip), vehicle: Klucel (hydroxypropylcellulose) (HPC) 105 % of control | dose: 50.0 mg/kg/injection, schedule: Q04DX002 (ip), vehicle: Klucel (hydroxypropylcellulose) (HPC) 102 % of control | [12] 97 % of control

O=C(C=C(C(F)(F)F)C(F)(F)F)c1ccc(C(=O)C=C(C(F)(F)F)C(F)(F)F)cc1
inactive: dose: 12.5 mg/kg/injection, schedule: Q01DX009 (ip), vehicle: saline with Tween-80 89 % of control | dose: 25.0 mg/kg/injection, schedule: Q01DX009 (ip), vehicle: saline with Tween-80 100 % of control | dose: 50.0 mg/kg/injection, schedule: Q01DX009 (ip), vehicle: saline with Tween-80 94 % of control and 101 % of control

O=C(C(Cl)(Cl)Cl)C(Cl)(Cl)Cl
inactive: dose: 75.0 mg/kg/injection, schedule: Q01DX009 (ip), vehicle: saline with Tween-80 90 % of control | [12] 113 % of control | dose: 150.0 mg/kg/injection, schedule: Q01DX009 (ip), vehicle: saline with Tween-80 93 % of control | dose: 200.0 mg/kg/injection, schedule: Q04DX002 (ip), vehicle: Klucel (hydroxypropylcellulose) (HPC) 113 % of control | dose: 300.0 mg/kg/injection, schedule: Q01DX009 (ip), vehicle: saline with Tween-80 86 % of control | dose: 400.0 mg/kg/injection, schedule: Q04DX002 (ip), vehicle: Klucel (hydroxypropylcellulose) (HPC) 87 % of control

CC(C)(C)S(=O)(=O)CCCCS(=O)(=O)C(C)(C)C
inactive: [13] 102 % of control | [1] 104 % of control | dose: 100.0 mg/kg/injection, schedule: Q04DX003 (ip), vehicle: acetone 100 % of control | [14] 94 % of control | [3] 96 % of control | dose: 200.0 mg/kg/injection, schedule: Q04DX003 (ip), vehicle: acetone 96 % of control | [15] 88 % of control | dose: 400.0 mg/kg/injection, schedule: Q01DX009 (ip), vehicle: saline 105 % of control | dose: 400.0 mg/kg/injection, schedule: Q04DX003 (ip), vehicle: acetone 89 % of control

ClC1(Cl)c2ccccc2-c2ccccc21
inactive: [13] 103 % of control | [14] 113 % of control | [15] 110 % of control

CN1c2ccc(Cl)cc2C2(C(=O)NN)C(C(=O)NN)N(C3CCCCC3)C(=O)C12N (centres undefined)
inactive: [16] 97 % of control | [17] 107 % of control

CC(=O)OC1CC2CCC1(S(=O)(=O)O)C2(C)C (centres undefined)
inactive: [13] 107 % of control | [2] 103 % of control | [14] 108 % of control | [4] 103 % of control | [15] 107 % of control | [5] 114 % of control

Cc1ccc(NCC(O)CN2CCOCC2)cc1 (centres undefined)
inactive: dose: 3.0 mg/kg/injection, schedule: Q04DX003 (ip), vehicle: Klucel (hydroxypropylcellulose) (HPC) 107 % of control | dose: 6.0 mg/kg/injection, schedule: Q01DX009 (ip), vehicle: Klucel (hydroxypropylcellulose) (HPC) 101 % of control | dose: 6.0 mg/kg/injection, schedule: Q04DX003 (ip), vehicle: Klucel (hydroxypropylcellulose) (HPC) 100 % of control | dose: 12.0 mg/kg/injection, schedule: Q01DX009 (ip), vehicle: Klucel (hydroxypropylcellulose) (HPC) 93 % of control | dose: 12.0 mg/kg/injection, schedule: Q04DX003 (ip), vehicle: Klucel (hydroxypropylcellulose) (HPC) 103 % of control | dose: 24.0 mg/kg/injection, schedule: Q01DX009 (ip), vehicle: Klucel (hydroxypropylcellulose) (HPC) 106 % of control | dose: 100.0 mg/kg/injection, schedule: Q01DX001 (ip), vehicle: other 101 % of control

ON=C(c1ccc(Cl)cc1)c1ccc(Cl)cc1
inactive: [16] 95 % of control | [17] 93 % of control | dose: 400.0 mg/kg/injection, schedule: Q01DX009 (ip), vehicle: saline with Tween-80 93 % of control

C1Cc2c3c4c(c5c2C(C1)CCC5)CCCC4CCC3
inactive: [13] 97 % of control | [14] 94 % of control | [15] 91 % of control

O=C(CCc1ccccc1)NC(=S)Nc1cc(C(F)(F)F)ccc1Cl
inactive: [9] 94 % of control | [10] 90 % of control | [11] 87 % of control

CCCCCCCCCCCCn1cnc2ncnc(Cl)c21
inactive: dose: 12.5 mg/kg/injection, schedule: Q01DX005 (ip), vehicle: other 102 % of control | dose: 25.0 mg/kg/injection, schedule: Q01DX005 (ip), vehicle: other 98 % of control | dose: 50.0 mg/kg/injection, schedule: Q01DX005 (ip), vehicle: other 98 % of control | dose: 100.0 mg/kg/injection, schedule: Q01DX005 (ip), vehicle: other 96 % of control

CC(C)(C)c1ccc(CN2CCN(C(c3ccccc3)c3ccc(Cl)cc3)CC2)cc1 (centres undefined)
inactive: dose: 12.5 mg/kg/injection, schedule: Q01DX009 (ip), vehicle: Klucel (hydroxypropylcellulose) (HPC) 98 % of control | dose: 25.0 mg/kg/injection, schedule: Q01DX009 (ip), vehicle: Klucel (hydroxypropylcellulose) (HPC) 91 % of control | dose: 25.0 mg/kg/injection, schedule: Q04DX003 (ip), vehicle: Klucel (hydroxypropylcellulose) (HPC) 93 % of control | dose: 50.0 mg/kg/injection, schedule: Q01DX009 (ip), vehicle: Klucel (hydroxypropylcellulose) (HPC) 91 % of control | dose: 50.0 mg/kg/injection, schedule: Q04DX003 (ip), vehicle: Klucel (hydroxypropylcellulose) (HPC) 93 % of control | [6] 96 % of control | [7] 91 % of control

CSc1cccc(NC(=O)NCCCl)c1
inactive: [6] 104 % of control | [7] 103 % of control | [8] 93 % of control
